The target of this assay is T1, p53 Y220C (Homo sapiens, UniProt P04637, Y220C).
T1 construct: The recombinant protein was a truncation mutant containing only amino acids 94-312 of p53; made in house; host or cells: E. coli
T1 sequence (P04637 94-312, change not shown): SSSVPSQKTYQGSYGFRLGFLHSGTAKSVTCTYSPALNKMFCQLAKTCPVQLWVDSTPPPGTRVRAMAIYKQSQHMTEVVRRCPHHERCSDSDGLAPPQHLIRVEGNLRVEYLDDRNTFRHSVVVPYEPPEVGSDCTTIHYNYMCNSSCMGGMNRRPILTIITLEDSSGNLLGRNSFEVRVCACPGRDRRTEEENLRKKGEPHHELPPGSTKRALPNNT
Description: In vitro DNA binding activity assay (HTRF / TR-FRET): stabilization of p53 Y220C and increase of its DNA binding activity. The following applies: recombinant His-tagged p53 Y220C DNA binding domain (aa 94-312), biotin-labeled consensus DNA, incubated at 27° C. or 29° C. for 60 min. The class given is biochemical. The method, boiled down: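 Homogeneous time-resolved fluorescence with E. coli-derived p53 Y220C and biotinylated consensus DNA. Room-temperature incubations of 15 and 20 min precede reading. SC150 denotes the compound concentration required for 50% increased DNA binding.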
A general note: In TR-FRET formats the signal depends on donor and acceptor labels being close together.
On to `COc1cc(S(C)(=O)=O)ccc1NCC#Cc1cc2c(N[C@@H]3CCO[C@@H](C)C3)cccc2n1CC(F)(F)F` [Compound 1016A, 2-{3-[(4-methanesulfonyl-2-methoxyphenyl)amino]prop-1-yn-1-yl}-N-[(2S,4R)-2-methyloxan-4-yl]-1-(2,2,2-trifluoroethyl)-1H-indol-4-amine], for which the “SC150 (concentration of the compound required to increase the DNA binding activity by 50%)” value is reported as “+ (+ = 0 μM ≤ SC150 < 0.05 μM)”.

In the case of `COc1cc(S(C)(=O)=O)ccc1NCC#Cc1cc2c(N[C@H]3CCO[C@@H](C)C3)cccc2n1CC(F)(F)F` [Compound 1017A, 2-{3-[(4-methanesulfonyl-2-methoxyphenyl)amino]prop-1-yn-1-yl}-N-[(2S,4S)-2-methyloxan-4-yl]-1-(2,2,2-trifluoroethyl)-1H-indol-4-amine], the “SC150 (concentration of the compound required to increase the DNA binding activity by 50%)” value is given as “+ (+ = 0 μM ≤ SC150 < 0.05 μM)”.

As to `COc1cc(S(N)(=O)=O)ccc1NCC#Cc1cc2c(N[C@@H]3CCO[C@@H](C)C3)cccc2n1CC(F)(F)F` [Compound 1018A, 3-methoxy-4-{[3-(4-{[(2S,4R)-2-methyloxan-4-yl]amino}-1-(2,2,2-trifluoroethyl)-1H-indol-2-yl)prop-2-yn-1-yl]amino}benzene-1-sulfonamide], the “SC150 (concentration of the compound required to increase the DNA binding activity by 50%)” value is “+ (+ = 0 μM ≤ SC150 < 0.05 μM)”. As for `COc1cc(S(N)(=O)=O)ccc1NCC#Cc1cc2c(N[C@H]3CCO[C@@H](C)C3)cccc2n1CC(F)(F)F` [Compound 1019A, 3-methoxy-4-{[3-(4-{[(2S,4S)-2-methyloxan-4-yl]amino}-1-(2,2,2-trifluoroethyl)-1H-indol-2-yl)prop-2-yn-1-yl]amino}benzene-1-sulfonamide], the entry is “+ (+ = 0 μM ≤ SC150 < 0.05 μM)”. As for `COc1cc(C(N)=O)ccc1NCC#Cc1cc2c(N[C@@H]3CCO[C@@H](C)C3)cccc2n1CC(F)(F)F` [Compound 1020A, 3-methoxy-4-{[3-(4-{[(2S,4R)-2-methyloxan-4-yl]amino}-1-(2,2,2-trifluoroethyl)-1H-indol-2-yl)prop-2-yn-1-yl]amino}benzamide], the entry is “+ (+ = 0 μM ≤ SC150 < 0.05 μM)”; as for `COc1cc(C(N)=O)ccc1NCC#Cc1cc2c(N[C@H]3CCO[C@@H](C)C3)cccc2n1CC(F)(F)F` [Compound 1021A, 3-methoxy-4-{[3-(4-{[(2S,4S)-2-methyloxan-4-yl]amino}-1-(2,2,2-trifluoroethyl)-1H-indol-2-yl)prop-2-yn-1-yl]amino}benzamide], “+ (+ = 0 μM ≤ SC150 < 0.05 μM)”; as for `COc1cc(S(C)(=O)=O)ccc1NCC#Cc1cc2c(N[C@H]3CCOC[C@@H]3OC)cccc2n1CC(F)(F)F` [Compound 1023A, 2-(3-((2-methoxy-4-(methylsulfonyl)phenyl)amino)prop-1-yn-1-yl)-N-((3R,4S)-3-methoxytetrahydro-2H-pyran-4-yl)-1-(2,2,2-trifluoroethyl)-1H-indol-4-amine], “++ (++ = 0.05 μM ≤ SC150 < 0.1 μM)”. With `COc1cc(S(C)(=O)=O)ccc1NCC#Cc1cc2c(N[C@H]3CCOC[C@H]3OC)cccc2n1CC(F)(F)F` [Compound 1024A, 2-(3-((2-methoxy-4-(methylsulfonyl)phenyl)amino)prop-1-yn-1-yl)-N-((3S,4S)-3-methoxytetrahydro-2H-pyran-4-yl)-1-(2,2,2-trifluoroethyl)-1H-indol-4-amine], the “SC150 (concentration of the compound required to increase the DNA binding activity by 50%)” value is recorded as “+ (+ = 0 μM ≤ SC150 < 0.05 μM)”. As for `COc1cc(S(C)(=O)=O)ccc1NCC#Cc1cc2c(N[C@H]3CCOC[C@H]3F)cccc2n1CC(F)(F)F` [Compound 1025A, N-[(3S,4S)-3-fluorooxan-4-yl]-2-{3-[(4-methanesulfonyl-2-methoxyphenyl)amino]prop-1-yn-1-yl}-1-(2,2,2-trifluoroethyl)-1H-indol-4-amine], the entry is “+ (+ = 0 μM ≤ SC150 < 0.05 μM)”; as for `COc1cc(S(C)(=O)=O)ccc1NCC#Cc1cc2c(N[C@@H]3CCOC[C@@H]3F)cccc2n1CC(F)(F)F` [Compound 1026A, N-[(3R,4R)-3-fluorooxan-4-yl]-2-{3-[(4-methanesulfonyl-2-methoxyphenyl)amino]prop-1-yn-1-yl}-1-(2,2,2-trifluoroethyl)-1H-indol-4-amine], “+ (+ = 0 μM ≤ SC150 < 0.05 μM)”; as for `COc1cc(S(C)(=O)=O)ccc1NCC#Cc1cc2c(N[C@H]3C[C@@H](C)O[C@@H](C)C3)cccc2n1CC(F)(F)F` [Compound 1027A, 2-{3-[(4-methanesulfonyl-2-methoxyphenyl)amino]prop-1-yn-1-yl}-N-[(2R,4R,6S)-2,6-dimethyloxan-4-yl]-1-(2,2,2-trifluoroethyl)-1H-indol-4-amine], “++ (++ = 0.05 μM ≤ SC150 < 0.1 μM)”. The result for `COc1cc(S(C)(=O)=O)ccc1NCC#Cc1cc2c(N[C@@H]3C[C@@H](C)O[C@@H](C)C3)cccc2n1CC(F)(F)F` [Compound 1028A, 2-{3-[(4-methanesulfonyl-2-methoxyphenyl)amino]prop-1-yn-1-yl}-N-[(2R,4S,6S)-2,6-dimethyloxan-4-yl]-1-(2,2,2-trifluoroethyl)-1H-indol-4-amine] reads “+++ (+++ = 0.1 μM ≤ SC150 < 0.2 μM)”; that for `COc1cc(C(N)=O)ccc1NCC#Cc1cc2c(N[C@H]3C[C@@H](C)O[C@@H](C)C3)cccc2n1CC(F)(F)F` [Compound 1029A, 3-methoxy-4-{[3-(4-{[(2R,4R,6S)-2,6-dimethyloxan-4-yl]amino}-1-(2,2,2-trifluoroethyl)-1H-indol-2-yl)prop-2-yn-1-yl]amino}benzamide], “+++ (+++ = 0.1 μM ≤ SC150 < 0.2 μM)”; that for `COc1cc(C(N)=O)ccc1NCC#Cc1cc2c(N[C@@H]3C[C@@H](C)O[C@@H](C)C3)cccc2n1CC(F)(F)F` [Compound 1030A, 3-methoxy-4-{[3-(4-{[(2R,4S,6S)-2,6-dimethyloxan-4-yl]amino}-1-(2,2,2-trifluoroethyl)-1H-indol-2-yl)prop-2-yn-1-yl]amino}benzamide], “++ (++ = 0.05 μM ≤ SC150 < 0.1 μM)”. As for `COc1cc(S(N)(=O)=O)ccc1NCC#Cc1cc2c(N[C@@H]3C[C@@H](C)O[C@@H](C)C3)cccc2n1CC(F)(F)F` [Compound 1031A, 3-methoxy-4-{[3-(4-{[(2R,4S,6S)-2,6-dimethyloxan-4-yl]amino}-1-(2,2,2-trifluoroethyl)-1H-indol-2-yl)prop-2-yn-1-yl]amino}benzene-1-sulfonamide], the “SC150 (concentration of the compound required to increase the DNA binding activity by 50%)” value is reported as “+ (+ = 0 μM ≤ SC150 < 0.05 μM)”. As for `COc1cc(S(N)(=O)=O)ccc1NCC#Cc1cc2c(N[C@H]3C[C@@H](C)O[C@@H](C)C3)cccc2n1CC(F)(F)F` [Compound 1032A, 3-methoxy-4-{[3-(4-{[(2R,4R,6S)-2,6-dimethyloxan-4-yl]amino}-1-(2,2,2-trifluoroethyl)-1H-indol-2-yl)prop-2-yn-1-yl]amino}benzene-1-sulfonamide], the entry is “++ (++ = 0.05 μM ≤ SC150 < 0.1 μM)”; as for `COc1cc(C(C)(C)C#N)ncc1NCC#Cc1cc2c(NC3CCS(=O)(=O)CC3)cccc2n1CC(F)(F)F` [Compound 1034A, 2-{5-[(3-{4-[(1,1-dioxo-1λ^6-thian-4-yl)amino]-1-(2,2,2-trifluoroethyl)-1H-indol-2-yl}prop-2-yn-1-yl)amino]-4-methoxypyridin-2-yl}-2-methylpropanenitrile], “+ (+ = 0 μM ≤ SC150 < 0.05 μM)”.

As for `CS(=O)(=O)c1ccc(NCC#Cc2cc3c(NC4CCS(=O)(=O)CC4)cccc3n2CC(F)(F)F)c(OC(F)(F)F)c1` [Compound 1035A, 4-{[2-(3-{[4-methanesulfonyl-2-(trifluoromethoxy)phenyl]amino}prop-1-yn-1-yl)-1-(2,2,2-trifluoroethyl)-1H-indol-4-yl]amino}-1λ^6-thiane-1,1-dione], the “SC150 (concentration of the compound required to increase the DNA binding activity by 50%)” value is “+ (+ = 0 μM ≤ SC150 < 0.05 μM)”. The result for `COc1cc(S(=O)(=O)N2CCOCC2)ccc1NCC#Cc1cc2c(NC3CCS(=O)(=O)CC3)cccc2n1CC(F)(F)F` [Compound 1036A, 4-{[2-(3-{[2-methoxy-4-(morpholine-4-sulfonyl)phenyl]amino}prop-1-yn-1-yl)-1-(2,2,2-trifluoroethyl)-1H-indol-4-yl]amino}-1λ^6-thiane-1,1-dione] reads “+ (+ = 0 μM ≤ SC150 < 0.05 μM)”; that for `CN(C)CCOc1cc(S(C)(=O)=O)ccc1NCC#Cc1cc2c(NC3CCS(=O)(=O)CC3)cccc2n1CC(F)(F)F` [Compound 1037A, 4-({2-[3-({2-[2-(dimethylamino)ethoxy]-4-methanesulfonylphenyl}amino)prop-1-yn-1-yl]-1-(2,2,2-trifluoroethyl)-1H-indol-4-yl}amino)-1λ^6-thiane-1,1-dione], “++ (++ = 0.05 μM ≤ SC150 < 0.1 μM)”. As for `COc1cc(S(=O)(=O)N(C)CCO)ccc1NCC#Cc1cc2c(NC3CCS(=O)(=O)CC3)cccc2n1CC(F)(F)F` [Compound 1038A, 4-[(3-{4-[(1,1-dioxo-1λ^6-thian-4-yl)amino]-1-(2,2,2-trifluoroethyl)-1H-indol-2-yl}prop-2-yn-1-yl)amino]-N-(2-hydroxyethyl)-3-methoxy-N-methylbenzene-1-sulfonamide], the entry is “+ (+ = 0 μM ≤ SC150 < 0.05 μM)”; as for `COc1cc(S(=O)(=O)Nc2ccon2)ccc1NCC#Cc1cc2c(NC3CCS(=O)(=O)CC3)cccc2n1CC(F)(F)F` [Compound 1039A, 4-[(3-{4-[(1,1-dioxo-1λ^6-thian-4-yl)amino]-1-(2,2,2-trifluoroethyl)-1H-indol-2-yl}prop-2-yn-1-yl)amino]-3-methoxy-N-(1,2-oxazol-3-yl)benzene-1-sulfonamide], “+ (+ = 0 μM ≤ SC150 < 0.05 μM)”.

The values above are taken from patent US12428406B2 (PMV Pharmaceuticals, Inc., priority 2019, dated 2025).
